The record followed here is patent US20190054097A1, “COMPOSITIONS TARGETING SENESCENT CELLS AND THE USES THEREOF” (BioVentures, LLC, priority 2016, published 2019).

For assay [1], the system named is IR-induced senescent WI38 cells (IR-SC). Description: Viability of IR-induced senescent WI38 cells, PI staining and flow cytometry, 72 hours. Format: cell-based. As to the method: (§1) Normal WI38 (NSC) and IR-induced senescent WI38 cells (IR-SC) were incubated with vehicle or increasing concentrations of compounds of Formula (I) or Formula (II) for 72 hours. The cells were digested with 0.25% trypsin and 1 mM EDTA, and harvested in PBS containing 2% FBS. After incubation with propidium iodide (PI, 100 ng/ml) in PBS at room temperature for 1 minute, cells were centrifuged at 1,200 rpm for 6 minutes to remove PI and then resuspended in PBS containing 2% FBS for analysis using a flow cytometer. Viable cells (PI− cells) were analyzed by flow cytometry at a constant flow rate to count the number of cells and calculated as a percentage of control cells treated with vehicle. Table 1 depicts the EC50 values of the compounds of Formula (I) and compounds of Formula (II) against normal WI38 and IR-induced senescent WI38.
On the technique in general: A flow cytometer gives signals particle by particle.

For another assay, the system named is RS4; 11 cancer cells. Put plainly: Cancer cell viability by MTS, 72 hours. It is filed as cell-based. The settings on record: 11 cells. The method, then:
(§2) RS4; 11 and NCI-H146 cancer cells were incubated with vehicle or increasing concentrations of compounds of Formula (I) and Formula (II). At 72 hours post-treatment cell viability was measured by MTS and EC50 was calculated as a percentage of control cells treated with vehicle. Table 1 depicts the EC50 values of compounds of Formula (I) and Formula (II) against RS4; 11 and NCI-H146.

The next assay concerns NCI-H146 cancer cells. Description: Cancer cell viability by MTS, 72 hours. It is filed as cell-based. The method, then: as §2
The subject of the next assay is Normal WI38 (NSC). Description: Viability of normal WI38 cells, PI staining and flow cytometry, 72 hours. It is filed as cell-based. The settings on record: viable PI- cells as percentage of vehicle control. As to the method: as §1
The subject of the next assay is senescent cells. Put plainly: Cisplatin-induced peripheral neuropathy (CIPN) in p16-3MR transgenic mice, Von Frey assay and Hot Plate Analgesia Meter. It is filed as in vivo. The settings on record: GCV 25 mg/kg/day or ABT263 50 mg/kg/day i.p., 5 days per cycle, 2 cycles, FIG. 8-11. The method, then: CIPN was induced in young adult male and female p16-3MR mice by intraperitoneal (i.p.) injection of cisplatin (Lake Zurich, Ill., USA) at 2.3 mg/kg/d for 5 days per cycle for 2 cycles with an interval of 5 days between the cycles. The induction of CIPN was measured by analyzing the mechanical sensitivity using the Von Frey assay the day before Cisplatin treatment and on various day after Cisplatin treatment. N=5-6 mice per group.
Mice were treated as described in FIG. 8. The induction of CIPN was measured by analyzing the sensitivity to thermal allodynia using the Hot Plate Analgesia Meter on various day after Cisplatin treatment. N=5-6 mice per group.
To determine the effect of senescent cells on the induction of CIPN, cisplatin-treated mice were administered with vehicle, ganciclovir (GCV) at 25 mg/kg/day for 5 days per cycle for 2 cycles with an interval of 17 days between the cycles, or ABT263 at 50 mg/kg/day for 5 days per cycle for 2 cycles with an interval of 17 days between the cycles by i.p. injection at the indicated times after cisplatin treatment. […] The induction of CIPN was measured by analyzing the mechanical sensitivity using the Von Frey assay (FIG. 8 and FIG. 9) and by analyzing the sensitivity to thermal allodynia using the Hot Plate Analgesia Meter (FIG. 10 and FIG. 11) the day before Cisplatin treatment and on various day after Cisplatin treatment.

The target in another assay is T1, Bcl-xL (Homo sapiens, UniProt Q07817).
T1 construct: endogenous in cells; host or cells: IR-SC WI38 cells
Description: Protein degradation assay (western blot) in IR-SC WI38 cells. It is filed as cell-based. The conditions noted are these: increasing concentrations for 18 hours (FIG. 3A); fixed concentration for increasing times (FIG. 3B). As to the method: IR-SC WI38 cells were incubated with vehicle or increasing concentrations of XZ-14439 for 18 hours at increasing […] (FIG. 3A) and at a fixed concentration of XZ-14439 for increasing times (FIG. 3B). The cells were digested with 0.25% trypsin and 1 mM EDTA, and harvested in RIPA lysis buffer with 1% Phosphatase Inhibitor Cocktail 3 and 1% Protease Inhibitor Cocktail. An equal amount of protein (15-30 μg/lane) from each cell extract was resolved on a 12% SDS-PAGE gel. Proteins were blotted onto a NOVEX PVDF membrane by electrophoresis. The membranes were blocked with TBS-T blocking buffer (5% nonfat milk in 25 mM Tris-HCL, pH 7.4; 3 mM KCl; […] NaCl; and 0.05% Tween) and probed with primary antibodies (at a predetermined optimal concentration) overnight at 4° C. or for 1 hour at room temperature. […] After three washes with TBS-T, the proteins of interest were detected with ECL Western Blotting Detection Reagents and recorded with autoradiography (Pierce Biotech, Rockford, Ill., USA). […]
IR-SC WI38 (FIG. 4A) and RS4; 11 (FIG. 4B) cells were incubated with vehicle or increasing concentrations of compounds of Formula (I) or Formula (II) for 6 or 16 hours, at 1 μM (FIG. 4A) and 100 nm (FIG. 4B), respectively. […] After three washes with TBS-T, the proteins of interest were detected with ECL Western Blotting Detection Reagents and recorded with autoradiography. […]
In general terms: A western blot detects proteins with antibodies after separation by electrophoresis.

In general, pEC50 refers to the negative decadic logarithm of the EC50, by convention in mol/L. Lower therefore signals a large EC50.

pEC50: −log10 of the molar value.

T1 sequence (Q07817 whole entry): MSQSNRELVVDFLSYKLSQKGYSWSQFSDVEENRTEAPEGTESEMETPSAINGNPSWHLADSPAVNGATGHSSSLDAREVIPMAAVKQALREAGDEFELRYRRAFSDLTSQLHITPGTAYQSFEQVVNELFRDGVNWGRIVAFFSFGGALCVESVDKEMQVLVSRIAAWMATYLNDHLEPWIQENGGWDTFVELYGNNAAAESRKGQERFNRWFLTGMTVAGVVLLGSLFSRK

Consider `Cc1ncsc1-c1ccc(CNC(=O)[C@@H]2C[C@@H](O)CN2C(=O)[C@@H](NC(=O)COCCOCCOCc2cn(CCCC(=O)N3CCN(CC#Cc4ccc(OCCCc5sc(N6CCc7cccc(C(=O)Nc8nc9ccccc9s8)c7C6)nc5C(=O)O)c(F)c4)CC3)nn2)C(C)(C)C)cc1` [XZ-14455, 2-(8-(benzo[d]thiazol-2-ylcarbamoyl)-3,4-dihydroisoquinolin-2(1H)-yl)-5-(3-(2-fluoro-4-(3-(4-(4-(4-((S)-12-((2S,4R)-4-hydroxy-2-((4-(4-methylthiazol-5-14)benzyl)carbamoyl)pyrrolidine-1-carbonyl)-13,13-dimethyl-10-oxo-2,5,8-trioxa-11-azatetradecyl)-1H-1,2,3-triazol-1-yl)butanoyl)piperazin-1-yl)prop-1-yn-1-yl)phenoxy)propyl)thiazole-4-carboxylic acid], for which the negative logarithm of the EC50 (pEC50) in assay [1] (IR-induced senescent WI38 cells, 72 hours, viable PI- cells as percentage of vehicle control) is 5.83; in the assay on RS4; 11 cancer cells, < 5.70; in the assay with NCI-H146 cancer cells it was < 5.70; in the assay on Normal WI38 (NSC) it was 5.30. Moreover, the “Ratio NSC/SC” value in assay [1] (ratio of WI38 EC50 in normal cells to EC50 in IR-induced senescent cells) is reported as 3.40.

For `Nc1nc(O)c2ncn(COC(CO)CO)c2n1` [GCV, ganciclovir], the “Reversal of cisplatin-induced peripheral neuropathy” value in the assay with senescent cells is on record as “reversed cisplatin-induced peripheral neuropathy (CIPN)”.

On to `CC1(C)CCC(c2ccc(Cl)cc2)=C(CN2CCN(c3ccc(C(=O)NS(=O)(=O)c4ccc(N[C@H](CCN5CCN(C(=O)CCCn6cc(COCCOCCOCCNc7cccc8c7C(=O)N(C7CCC(=O)NC7=O)C8=O)nn6)CC5)CSc5ccccc5)c(S(=O)(=O)C(F)(F)F)c4)cc3)CC2)C1` (stereo partly drawn) [XZ-14439, 4-(4-((4′-chloro-4,4-dimethyl-3,4,5,6-tetrahydro-[1,1′-biphenyl]-2-yl)methyl)piperazin-1-yl)-N-((4-(((2R)-4-(4-(4-(4-((2-(2-(2-((2-(2,6-dioxopiperidin-3-yl)-1,3-dioxoisoindolin-4-yl)amino)ethoxy)ethoxy)ethoxy)methyl)-1H-1,2,3-triazol-1-yl)butanoyl)piperazin-1-yl)-1-(phenylthio)butan-2-yl)amino)-3-((trifluoromethyl)sulfonyl)phenyl)sulfonyl)benzamide], for which the “Bcl-xL depletion in IR-SC WI38 cells, dose and time dependence” value at Bcl-xL is recorded as “depletes Bcl-xL”.
